Results: patent publication US20250092030A1, “ENHANCERS OF PARTICULATE GUANYLYL CYCLASE RECEPTOR A” (Mayo Foundation for Medical Education and Research, priority 2023, published 2025)
pEC50: −log10 of the molar value. “And” between values parts separate entries of the source, which are not always exact repeats. Identical values can stand only once.

Target: T1, particulate guanylyl cyclase receptor A (pGC-A) (Homo sapiens, UniProt P16066)
T1 construct: expressed in transfected cells; host or cells: HEK293
T1 sequence (P16066 33-1061): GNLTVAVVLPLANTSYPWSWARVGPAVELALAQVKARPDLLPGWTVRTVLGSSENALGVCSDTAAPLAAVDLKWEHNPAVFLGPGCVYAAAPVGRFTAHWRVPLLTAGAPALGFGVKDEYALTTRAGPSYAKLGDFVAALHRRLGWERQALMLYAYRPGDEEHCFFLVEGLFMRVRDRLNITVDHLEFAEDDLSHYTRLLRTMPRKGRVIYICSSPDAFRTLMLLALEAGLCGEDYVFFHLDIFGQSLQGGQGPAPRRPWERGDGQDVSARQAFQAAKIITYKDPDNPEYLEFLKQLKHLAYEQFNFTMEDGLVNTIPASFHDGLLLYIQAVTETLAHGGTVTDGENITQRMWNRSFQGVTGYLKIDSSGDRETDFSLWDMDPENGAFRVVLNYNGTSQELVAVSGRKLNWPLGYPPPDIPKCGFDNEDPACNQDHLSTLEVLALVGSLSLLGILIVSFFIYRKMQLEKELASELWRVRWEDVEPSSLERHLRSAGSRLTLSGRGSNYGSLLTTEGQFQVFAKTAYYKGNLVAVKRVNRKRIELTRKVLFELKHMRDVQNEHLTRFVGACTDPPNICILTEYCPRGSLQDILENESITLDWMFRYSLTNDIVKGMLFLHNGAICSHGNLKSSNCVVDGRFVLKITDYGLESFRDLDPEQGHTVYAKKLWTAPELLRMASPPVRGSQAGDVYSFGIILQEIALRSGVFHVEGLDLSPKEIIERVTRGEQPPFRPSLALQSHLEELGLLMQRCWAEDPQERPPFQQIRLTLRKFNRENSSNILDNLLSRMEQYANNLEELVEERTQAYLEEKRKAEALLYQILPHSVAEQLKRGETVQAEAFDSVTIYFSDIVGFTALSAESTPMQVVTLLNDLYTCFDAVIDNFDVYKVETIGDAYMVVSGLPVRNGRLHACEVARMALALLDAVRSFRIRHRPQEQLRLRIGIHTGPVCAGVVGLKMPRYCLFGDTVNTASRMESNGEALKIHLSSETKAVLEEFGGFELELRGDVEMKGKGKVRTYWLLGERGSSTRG
T1 sequence (P01160 124-151 partner limits assumed): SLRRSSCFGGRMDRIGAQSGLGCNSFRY
Test: cGMP production by HTRF in HEK293 cells overexpressing pGC-A, with ANP
Format: cell-based
Conditions: HEK293, HEK293 cells overexpressing pGC-A; cGMP normalized to maximal amount produced by an EC80 concentration of ANP; read-out: Max efficacy
From the text: Assay: Generally, the assay monitors the production of cGMP, the second messenger generated by pGC-A, by Time-Resolved Florescence (HTRF) in HEK293 cells overexpressing the pGC-A. pGC-A suspension cells were stimulated in the presence of the test compound and an EC20 concentration of ANP. The quantity of cGMP was detected by competitive immunoassay using Eu^3+ cryptate-labeled anti-cGMP and d2-labeled cGMP and normalized to maximal amount produced by an EC80 concentration of ANP. Compound EC50 values were determined in the primary assay, in the presence or absence of ANP, to determine mode of action as positive modulators and tested for selectivity in the same assay platform but in HEK cells overexpressing the particulate guanylyl cyclase B receptor (pGC-B), of which CNP is the endogenous ligand.
Assay details: 20 nL of 10 μM test compound in DMSO was added to columns 5-48 of 1536 well white high base screening plates (Corning, New York, NY) cells using 550 ECHO acoustic dispenser (Labcyte, San Jose, CA). Alpha-atrial natriuretic peptide (ANP) (Phoenix Pharmaceutics) was prepared as stock aliquots at 5 μM in PBS with 0.1% BSA. An approximate […] concentration of ANP ([…]) in assay buffer (HBSS containing 5 mM HEPES and 0.05% BSA) was added to columns 3-48 at a volume of 1 μL. Assay buffer only was added to column 1 and assay buffer containing a saturating concentration of ANP (5 nM) was added to column 2. HEK293 cells overexpressing GC-A were resuspended in assay media (OptimMem media containing 2% Heat-inactivated Fetal bovine serum and L-glutamine) at a density of 6×10^5 cells/mL and 2 μL were plated in screening plates (1200 cells/well) in suspension using a Bioraptr 2. Plates were spun at 1000 rpm for 1 min and incubated for 30 min at room temperature. 1.5 μL d2-labeled cGMP followed by 1.5 μL Eu^3+ cryptate-labeled anti-cGMP cGMP detection kit (CiBio; #62GM2PEC) prepared according to manufacturer's protocol were added to all wells using a Bioraptr 2 and TR-FRET signal was detected on an EnVision detector (PerkinElmer). Wells treated with 0.3% DMSO only serve as blank controls (column 1); wells treated with 0.3% DMSO and 5 nM ANP (columns 2) serve as positive controls and wells treated with 0.3% DMSO and […] ANP (columns 3-4) serve as negative controls.

Emax [%] | SMILES
46 | O=C(Nc1nc2c(Cl)cc(F)cc2s1)C1CCCN(C2CNC2)C1 (centres unmarked) [compound 136]
85 | CN(C)CCN1CCCC(C(=O)Nc2nc3cccc(F)c3s2)C1 (centres unmarked) [compound 032]
77 | CN(C)c1ccc(N2CCCC(C(=O)Nc3nc4c(F)cc(F)cc4s3)C2)cc1 (centres unmarked) [compound 066]
58 | O=C1CCC(C(=O)Nc2nc3c(F)cc(F)cc3s2)CN1 (centres unmarked) [compound 222]
101 | Cc1cc(F)c2nc(NC(=O)C3CCCN(CCN(C)C)C3)sc2c1 (centres unmarked) [compound 020]
87 | Cc1cc(N2CCCC(C(=O)Nc3nc4c(F)cc(F)cc4s3)C2)ccn1 (centres unmarked) [compound 105]
86 | CCN(CC)CCN1CCCC(C(=O)Nc2nc3c(F)cc(F)cc3s2)C1 (centres unmarked) [compound 238]
91 | O=C(Nc1nc2c(F)cc(F)cc2s1)C1CCCN(CCN2CCCCC2)C1 (centres unmarked) [compound 243]
80 | CCC(C)N1CC(N2CCCC(C(=O)Nc3nc4c(Cl)cc(F)cc4s3)C2)C1 (centres unmarked) [compound 137]
105 | CN(C)CCN1CCCC(C(=O)Nc2nc3c(F)cccc3s2)C1 (centres unmarked) [compound 224]
89 | CN1CCC(N2CCCC(C(=O)Nc3nc4c(F)cc(F)cc4s3)C2)C1=O (centres unmarked) [compound 097]
72 | CN(C)CCN1CCCC(C(=O)Nc2nc3c(Cl)cc(F)cc3s2)C1 (centres unmarked) [compound 253]
56 | O=C(Nc1nc2c(Cl)cc(F)cc2s1)C1CCCN(c2ccnnc2)C1 (centres unmarked) [compound 115]
94 | CN(C)CCN1CC2(C(=O)Nc3nc4c(Cl)cc(F)cc4s3)CCC1CC2 [compound 061]
93 | CN1CCC(N2CCCC(C(=O)Nc3nc4c(F)cc(F)cc4s3)C2)CC1 (centres unmarked) [compound 071]
82 | CN1CC(N2CCCC(C(=O)Nc3nc4c(Cl)cc(F)cc4s3)C2)C1 (centres unmarked) [compound 103]
88 | O=C(Nc1nc2c(F)cc(F)cc2s1)C1CCCN(CCn2cccn2)C1 (centres unmarked) [compound 067]
92 | O=C(Nc1nc2c(F)cc(F)cc2s1)C12CCC(CC1)NC2 [compound 062]
92 | CN1CCC(CN2CCCC(C(=O)Nc3nc4c(F)cc(F)cc4s3)C2)CC1 (centres unmarked) [compound 075]
81 | CC1NCC1N1CCCC(C(=O)Nc2nc3c(Cl)cc(F)cc3s2)C1 (centres unmarked) [compound 131]
101 | CN(C)CCCN1CCCCC1C(=O)Nc1nc2c(F)cc(F)cc2s1 (centres unmarked) [compound 041]
89 | CN(C)CCN1CCCCC(C(=O)Nc2nc3c(F)cc(F)cc3s2)C1 (centres unmarked) [compound 055]
91 | CN(C)C(=O)CN1CCCC(C(=O)Nc2nc3c(F)cc(F)cc3s2)C1 (centres unmarked) [compound 229]
46 | CC(=O)N1CC(N2CCCC(C(=O)Nc3nc4c(Cl)cc(F)cc4s3)C2)C1 (centres unmarked) [compound 138]
101 | CN(C)CCN[C@@H]1CCCCC1C(=O)Nc1nc2c(F)cc(F)cc2s1 (some centres unmarked) [compound 211]
53 | CNC(=O)N1CCCC(C(=O)Nc2nc3c(F)cc(F)cc3s2)C1 (centres unmarked) [compound 281]

Same assay, conditions: HEK293 cells overexpressing pGC-A; cGMP normalized to maximal amount produced by an EC80 concentration of ANP

Max efficacy [%] | SMILES
92 | CCN(CC)CCN1CCCC(C(=O)Nc2nc3c(F)cc(F)cc3s2)C1 (centres unmarked) [compound 238]
77 | O=C(Nc1nc2c(F)cc(F)cc2s1)C1CCCN(CCN2CCCCC2)C1 (centres unmarked) [compound 243]

Same assay, conditions: HEK293 cells overexpressing pGC-A; test compound plus EC20 concentration of ANP; cGMP by HTRF

pEC50 | SMILES
6.52 | O=C(Nc1nc2c(Cl)cc(F)cc2s1)C1CCCN(C2CNC2)C1 (centres unmarked) [compound 136]
5.37 | CN(C)CCN1CCCC(C(=O)Nc2nc3cccc(F)c3s2)C1 (centres unmarked) [compound 032]
5.72 | CN(C)c1ccc(N2CCCC(C(=O)Nc3nc4c(F)cc(F)cc4s3)C2)cc1 (centres unmarked) [compound 066]
6.00 | O=C1CCC(C(=O)Nc2nc3c(F)cc(F)cc3s2)CN1 (centres unmarked) [compound 222]
6.05 | Cc1cc(F)c2nc(NC(=O)C3CCCN(CCN(C)C)C3)sc2c1 (centres unmarked) [compound 020]
7.05 | Cc1cc(N2CCCC(C(=O)Nc3nc4c(F)cc(F)cc4s3)C2)ccn1 (centres unmarked) [compound 105]
6.68 and 6.49 | CCN(CC)CCN1CCCC(C(=O)Nc2nc3c(F)cc(F)cc3s2)C1 (centres unmarked) [compound 238]
6.33 and 6.70 | O=C(Nc1nc2c(F)cc(F)cc2s1)C1CCCN(CCN2CCCCC2)C1 (centres unmarked) [compound 243]
7.10 | CCC(C)N1CC(N2CCCC(C(=O)Nc3nc4c(Cl)cc(F)cc4s3)C2)C1 (centres unmarked) [compound 137]
5.24 | CN(C)CCN1CCCC(C(=O)Nc2nc3c(F)cccc3s2)C1 (centres unmarked) [compound 224]
6.15 | CN1CCC(N2CCCC(C(=O)Nc3nc4c(F)cc(F)cc4s3)C2)C1=O (centres unmarked) [compound 097]
7.30 | CN(C)CCN1CCCC(C(=O)Nc2nc3c(Cl)cc(F)cc3s2)C1 (centres unmarked) [compound 253]
7.00 | O=C(Nc1nc2c(Cl)cc(F)cc2s1)C1CCCN(c2ccnnc2)C1 (centres unmarked) [compound 115]
5.99 | CN(C)CCN1CC2(C(=O)Nc3nc4c(Cl)cc(F)cc4s3)CCC1CC2 [compound 061]
6.70 | CN1CCC(N2CCCC(C(=O)Nc3nc4c(F)cc(F)cc4s3)C2)CC1 (centres unmarked) [compound 071]
6.55 | CN1CC(N2CCCC(C(=O)Nc3nc4c(Cl)cc(F)cc4s3)C2)C1 (centres unmarked) [compound 103]
6.15 | O=C(Nc1nc2c(F)cc(F)cc2s1)C1CCCN(CCn2cccn2)C1 (centres unmarked) [compound 067]
5.47 | O=C(Nc1nc2c(F)cc(F)cc2s1)C12CCC(CC1)NC2 [compound 062]
5.82 | CN1CCC(CN2CCCC(C(=O)Nc3nc4c(F)cc(F)cc4s3)C2)CC1 (centres unmarked) [compound 075]
6.89 | CC1NCC1N1CCCC(C(=O)Nc2nc3c(Cl)cc(F)cc3s2)C1 (centres unmarked) [compound 131]
5.82 | CN(C)CCCN1CCCCC1C(=O)Nc1nc2c(F)cc(F)cc2s1 (centres unmarked) [compound 041]
6.22 | CN(C)CCN1CCCCC(C(=O)Nc2nc3c(F)cc(F)cc3s2)C1 (centres unmarked) [compound 055]
5.72 | CN(C)C(=O)CN1CCCC(C(=O)Nc2nc3c(F)cc(F)cc3s2)C1 (centres unmarked) [compound 229]
5.96 | CC(=O)N1CC(N2CCCC(C(=O)Nc3nc4c(Cl)cc(F)cc4s3)C2)C1 (centres unmarked) [compound 138]
5.89 | CNC(=O)N1CCCC(C(=O)Nc2nc3c(F)cc(F)cc3s2)C1 (centres unmarked) [compound 281]
